Data on one compound can be found in publication PMC9204419, “A Toolbox for the Generation of Chemical Probes for Baculovirus IAP Repeat Containing Proteins” (Frontiers in Cell and Developmental Biology, 2022).

Several values for one entry are separate records, joined by “and”; a condition that tells them apart may be missing. Equal values may be shown once. Where only a bound is given, the exact number is not on record here.

One experiment has as its target T1, BIRC8 BIR (Homo sapiens, UniProt Q96P09).
T1 sequence (Q96P09 1-90): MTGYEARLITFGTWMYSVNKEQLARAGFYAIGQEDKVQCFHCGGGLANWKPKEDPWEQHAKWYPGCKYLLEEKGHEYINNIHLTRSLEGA
Kind of experiment: NanoBRET cellular target engagement, single domain BIRC8 BIR.

For another experiment, the target named is T2, BIRC4 BIR1 (Homo sapiens, UniProt P98170).
T2 construct: N4 Q114; expressed in transfected cells; host or cells: HEK293T
Kind of experiment: NanoBRET tracer titration, BIRC4 BIR1. Type of experiment: cell-based. As to conditions: single domain, n = 4; read-out: Tracer KD,app ± SEM, BIRC4 BIR1.

The next experiment concerns the target T3, BIRC4 BIR2 (Homo sapiens, UniProt P98170).
T3 construct: G144 S253; expressed in transfected cells; host or cells: HEK293T
Kind of experiment: NanoBRET tracer titration, BIRC4 BIR2. Type of experiment: cell-based. Conditions: single domain, n = 4; read-out: Tracer KD,app ± SEM, BIRC4 BIR2. Background: In BRET a luciferase serves as donor, and the signal depends on an acceptor being close.

Another experiment addresses T4, BIRC7 BIR (Homo sapiens, UniProt Q96CA5).
T4 sequence (Q96CA5 70-176): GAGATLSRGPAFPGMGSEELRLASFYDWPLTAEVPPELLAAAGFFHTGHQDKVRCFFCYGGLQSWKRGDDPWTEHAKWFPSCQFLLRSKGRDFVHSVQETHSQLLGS
Kind of experiment: NanoBRET cellular target engagement, single domain BIRC7 BIR. Conditions: Tracer KD,app ± SEM, BIRC7 BIR, single domain, n = 4.

A further experiment addresses BIRC3 (Homo sapiens, UniProt Q13489). Kind of experiment: NanoBRET cellular target engagement, full-length BIRC3.
In experiment [2] the target is T5, BIRC1 BIR[2] (Homo sapiens, UniProt Q13075).
T5 sequence (Q13075 139-251): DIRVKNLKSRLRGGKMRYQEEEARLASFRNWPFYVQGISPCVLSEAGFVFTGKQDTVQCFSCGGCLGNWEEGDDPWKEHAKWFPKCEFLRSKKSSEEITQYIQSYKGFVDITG
Kind of experiment: NanoBRET cellular target engagement, single domain BIRC1 BIR[2]. As to conditions: Tracer KD,app ± SEM, BIRC1 BIR[2], single domain (D139-G251), n = 4.
Description: (§1) In brief: Constructs contained the cDNA of full-length or single domains cloned in frame with an N-terminal NanoLuc-fusion as specified in Supplementary Table S2. Plasmids were transfected into HEK293T cells using FuGENE HD (Promega, E2312) and proteins were allowed to express for 20 h. […] The corresponding transfected cells were added and reseeded at a density of 2.5^5 cells/mL after trypsinization and resuspending in Opti-MEM without phenol red (Life Technologies). […] Competitive displacement data were then graphed using GraphPad Prism 9.3 software using a normalized 3-parameter curve fit with the following equation: Y = 100/(1 + 10^(X-LogIC50)).

In another experiment the target is BIRC2 BIR3 (Homo sapiens, UniProt Q13490). Kind of experiment: NanoBRET cellular target engagement, single domain BIRC2 BIR3.
Another experiment addresses BIRC4 (Homo sapiens, UniProt P98170). Kind of experiment: NanoBRET cellular target engagement, full-length BIRC4.
In another experiment the target is T6, BIRC5 (Homo sapiens, UniProt O15392).
T6 construct: M1 D142; expressed in transfected cells; host or cells: HEK293T
Kind of experiment: NanoBRET tracer titration, BIRC5. Conditions: full-length taken as single BIR domain construct, n = 4; read-out: Tracer KD,app ± SEM, BIRC5. Type of experiment: cell-based.

In another experiment the target is T7, BIRC3 BIR1 (Homo sapiens, UniProt Q13489).
T7 construct: N6 S116; expressed in transfected cells; host or cells: HEK293T
Kind of experiment: NanoBRET tracer titration, BIRC3 BIR1. Conditions: single domain, n = 4; read-out: Tracer KD,app ± SEM, BIRC3 BIR1. Type of experiment: cell-based.

Another experiment concerns the target T8, BIRC4 BIR3 (Homo sapiens, UniProt P98170).
T8 construct: S245 N373; expressed in transfected cells; host or cells: HEK293T
Kind of experiment: NanoBRET tracer titration, BIRC4 BIR3. The class given is cell-based. As to conditions: single domain, n = 4; read-out: Tracer KD,app ± SEM, BIRC4 BIR3.

A further experiment concerns the target BIRC3 BIR3 (Homo sapiens, UniProt Q13489). Kind of experiment: NanoBRET cellular target engagement, single domain BIRC3 BIR3. Conditions: Tracer KD,app ± SEM, BIRC3 BIR3, single domain, n = 4.
In a further experiment the target is T9, BIRC1 BIR1 (Homo sapiens, UniProt Q13075).
T9 construct: N256 Q391; expressed in transfected cells; host or cells: HEK293T
Kind of experiment: NanoBRET tracer titration, BIRC1 BIR1 (third BIR domain of BIRC1). Conditions: third BIR domain of BIRC1 (N256-Q391), n = 4; read-out: Tracer KD,app ± SEM, BIRC1 BIR1. The class given is cell-based.

A further experiment addresses BIRC3 BIR2 (Homo sapiens, UniProt Q13489). Kind of experiment: NanoBRET cellular target engagement, single domain BIRC3 BIR2. As to conditions: Tracer KD,app ± SEM, BIRC3 BIR2, single domain, n = 4.
In another experiment the target is BIRC2 (Homo sapiens, UniProt Q13490). Kind of experiment: NanoBRET cellular target engagement, full-length BIRC2. Conditions: Tracer K D, full-length BIRC2, full-length.
A further experiment addresses T10, BIRC7 (Homo sapiens, UniProt Q96CA5).
T10 sequence (Q96CA5 1-298): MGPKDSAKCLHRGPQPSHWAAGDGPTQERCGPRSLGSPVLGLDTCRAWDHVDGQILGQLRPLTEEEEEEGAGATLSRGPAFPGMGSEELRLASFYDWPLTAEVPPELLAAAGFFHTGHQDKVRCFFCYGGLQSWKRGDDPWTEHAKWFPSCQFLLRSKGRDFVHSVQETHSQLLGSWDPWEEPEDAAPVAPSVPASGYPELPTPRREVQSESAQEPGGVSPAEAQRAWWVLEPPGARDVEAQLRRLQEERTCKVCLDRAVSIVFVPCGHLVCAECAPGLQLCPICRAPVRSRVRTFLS
Kind of experiment: NanoBRET cellular target engagement, full-length BIRC7.

The target in the next experiment is T11, BIRC2 BIR1 (Homo sapiens, UniProt Q13490).
T11 construct: D24 S134; expressed in transfected cells; host or cells: HEK293T
Kind of experiment: NanoBRET tracer titration, BIRC2 BIR1. Type of experiment: cell-based. Conditions: single domain, n = 4; read-out: Tracer KD,app ± SEM, BIRC2 BIR1.

The target of the next experiment is BIRC2 BIR2 (Homo sapiens, UniProt Q13490). Kind of experiment: NanoBRET cellular target engagement, single domain BIRC2 BIR2. Conditions: Tracer KD,app ± SEM, BIRC2 BIR2, single domain, n = 4.
Another experiment concerns the target T12, BIRC8 (Homo sapiens, UniProt Q96P09).
T12 sequence (Q96P09 1-236): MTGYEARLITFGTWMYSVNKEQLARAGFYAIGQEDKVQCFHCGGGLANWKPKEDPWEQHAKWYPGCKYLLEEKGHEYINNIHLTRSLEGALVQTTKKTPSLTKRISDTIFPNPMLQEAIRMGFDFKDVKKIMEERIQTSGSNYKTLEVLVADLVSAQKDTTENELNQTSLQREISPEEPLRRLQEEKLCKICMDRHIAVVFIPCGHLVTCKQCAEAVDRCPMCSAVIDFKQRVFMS
Kind of experiment: NanoBRET cellular target engagement, full-length BIRC8.

T9 sequence (Q13075 256-391): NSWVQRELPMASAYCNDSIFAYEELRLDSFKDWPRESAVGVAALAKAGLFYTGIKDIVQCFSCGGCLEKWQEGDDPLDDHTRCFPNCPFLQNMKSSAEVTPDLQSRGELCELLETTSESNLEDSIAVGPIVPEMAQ
T11 sequence (Q13490 24-134): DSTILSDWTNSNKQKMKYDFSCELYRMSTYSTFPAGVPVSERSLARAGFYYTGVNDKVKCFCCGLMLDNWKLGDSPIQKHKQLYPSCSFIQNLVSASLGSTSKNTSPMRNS
T3 sequence (P98170 144-253): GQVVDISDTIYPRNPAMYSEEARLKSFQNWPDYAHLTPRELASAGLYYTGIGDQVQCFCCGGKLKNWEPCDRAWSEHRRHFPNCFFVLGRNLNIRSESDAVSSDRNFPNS
T7 sequence (Q13489 6-116): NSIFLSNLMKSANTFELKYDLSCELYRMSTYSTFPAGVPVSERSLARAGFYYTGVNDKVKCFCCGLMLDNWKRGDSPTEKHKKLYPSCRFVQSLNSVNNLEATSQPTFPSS
Sequence of BIRC2 BIR2 (Q13490 165-267): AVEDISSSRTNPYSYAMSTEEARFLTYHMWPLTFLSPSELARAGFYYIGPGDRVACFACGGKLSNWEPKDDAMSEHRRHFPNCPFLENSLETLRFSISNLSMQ
Sequence of BIRC3 BIR3 (Q13489 236-360): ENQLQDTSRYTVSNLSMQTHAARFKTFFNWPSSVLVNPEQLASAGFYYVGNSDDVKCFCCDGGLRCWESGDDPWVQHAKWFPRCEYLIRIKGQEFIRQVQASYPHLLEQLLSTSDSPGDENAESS
T8 sequence (P98170 245-373): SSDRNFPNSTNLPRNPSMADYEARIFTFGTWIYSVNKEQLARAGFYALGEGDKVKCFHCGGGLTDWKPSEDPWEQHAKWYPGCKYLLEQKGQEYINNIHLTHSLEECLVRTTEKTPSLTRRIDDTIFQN
T6 sequence (O15392 whole entry): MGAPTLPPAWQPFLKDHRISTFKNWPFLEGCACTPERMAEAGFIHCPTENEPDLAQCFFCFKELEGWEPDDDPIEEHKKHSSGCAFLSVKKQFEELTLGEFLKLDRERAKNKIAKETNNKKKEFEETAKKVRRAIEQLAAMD
Sequence of BIRC2 (Q13490 whole entry): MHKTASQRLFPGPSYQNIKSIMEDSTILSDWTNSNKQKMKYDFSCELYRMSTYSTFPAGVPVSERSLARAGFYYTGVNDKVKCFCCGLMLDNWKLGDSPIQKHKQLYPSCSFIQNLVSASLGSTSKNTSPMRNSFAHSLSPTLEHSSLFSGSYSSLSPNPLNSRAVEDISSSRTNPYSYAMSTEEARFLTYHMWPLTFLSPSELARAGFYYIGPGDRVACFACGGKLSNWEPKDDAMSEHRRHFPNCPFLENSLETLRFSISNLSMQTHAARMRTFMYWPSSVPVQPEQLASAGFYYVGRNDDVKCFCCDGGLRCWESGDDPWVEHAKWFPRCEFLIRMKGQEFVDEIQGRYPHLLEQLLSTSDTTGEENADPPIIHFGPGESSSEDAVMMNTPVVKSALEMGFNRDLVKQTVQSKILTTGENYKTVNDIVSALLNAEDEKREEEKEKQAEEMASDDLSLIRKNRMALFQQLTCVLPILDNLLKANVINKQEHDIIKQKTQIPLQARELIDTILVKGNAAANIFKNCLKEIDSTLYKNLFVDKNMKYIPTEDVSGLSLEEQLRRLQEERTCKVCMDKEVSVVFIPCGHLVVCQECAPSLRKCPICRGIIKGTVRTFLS
Sequence of BIRC3 BIR2 (Q13489 147-253): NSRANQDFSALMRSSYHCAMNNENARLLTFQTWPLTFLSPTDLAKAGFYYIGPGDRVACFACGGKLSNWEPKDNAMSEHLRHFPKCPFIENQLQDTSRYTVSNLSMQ
Sequence of BIRC2 BIR3 (Q13490 251-372): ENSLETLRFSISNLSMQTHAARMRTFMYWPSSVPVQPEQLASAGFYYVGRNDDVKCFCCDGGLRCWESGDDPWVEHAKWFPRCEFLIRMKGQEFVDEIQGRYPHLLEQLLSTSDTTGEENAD
Sequence of BIRC3 (Q13489 whole entry): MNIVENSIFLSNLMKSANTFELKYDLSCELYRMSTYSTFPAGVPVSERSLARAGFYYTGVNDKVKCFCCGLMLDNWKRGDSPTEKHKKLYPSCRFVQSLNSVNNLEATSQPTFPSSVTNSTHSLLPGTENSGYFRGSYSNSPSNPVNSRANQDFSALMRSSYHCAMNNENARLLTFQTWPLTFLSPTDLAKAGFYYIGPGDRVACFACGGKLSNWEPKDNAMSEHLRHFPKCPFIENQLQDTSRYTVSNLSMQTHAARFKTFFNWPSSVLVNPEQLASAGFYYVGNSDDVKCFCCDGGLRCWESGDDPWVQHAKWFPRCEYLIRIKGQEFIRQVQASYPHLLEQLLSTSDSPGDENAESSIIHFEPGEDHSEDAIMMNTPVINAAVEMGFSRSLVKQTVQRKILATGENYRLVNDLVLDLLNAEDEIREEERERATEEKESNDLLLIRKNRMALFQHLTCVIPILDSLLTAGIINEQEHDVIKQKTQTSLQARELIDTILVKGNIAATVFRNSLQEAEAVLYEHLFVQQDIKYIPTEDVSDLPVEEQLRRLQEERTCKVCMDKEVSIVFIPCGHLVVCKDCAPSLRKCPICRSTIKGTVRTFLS
Sequence of BIRC4 (P98170 whole entry): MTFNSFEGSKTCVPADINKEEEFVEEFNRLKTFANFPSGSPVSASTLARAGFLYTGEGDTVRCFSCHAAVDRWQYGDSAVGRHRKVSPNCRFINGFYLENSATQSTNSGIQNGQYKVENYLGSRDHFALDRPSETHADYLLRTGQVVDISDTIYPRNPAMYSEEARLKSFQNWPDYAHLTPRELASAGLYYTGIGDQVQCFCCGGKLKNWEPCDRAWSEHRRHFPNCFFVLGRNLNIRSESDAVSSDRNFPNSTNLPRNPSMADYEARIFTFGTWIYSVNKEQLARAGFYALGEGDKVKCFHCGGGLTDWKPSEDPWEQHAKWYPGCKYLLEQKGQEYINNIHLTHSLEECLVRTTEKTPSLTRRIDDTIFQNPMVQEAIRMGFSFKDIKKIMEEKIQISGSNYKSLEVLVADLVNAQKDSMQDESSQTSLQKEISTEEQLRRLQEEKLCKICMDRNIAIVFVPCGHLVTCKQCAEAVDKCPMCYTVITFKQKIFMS
T2 sequence (P98170 4-114): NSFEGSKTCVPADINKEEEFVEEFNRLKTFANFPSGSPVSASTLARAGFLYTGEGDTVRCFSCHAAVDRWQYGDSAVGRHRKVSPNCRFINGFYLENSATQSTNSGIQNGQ
Description for BIRC2 BIR2: as §1
Description for BIRC2 BIR3: as §1
Description for BIRC3 BIR2: as §1
Description for BIRC3 BIR3: as §1
Description for BIRC7 BIR: as §1
Description for BIRC8 BIR: as §1

Take `CNC(C)C(=O)NC(C(=O)N1CCCC1c1nc(C(=O)c2cccc(OCCOCCOCCNC(=O)CCc3ccc4n3[B-](F)(F)[N+]3=C(c5ccc[nH]5)C=CC3=C4)c2)cs1)C1CCCCC1` (centres unmarked) [IAP Tracer]: the Kd at BIRC8 BIR was 2760 ± 340 nM; at BIRC4 BIR1, 2750 nM and > 1000 nM; at BIRC4 BIR2, over 4000 nM; on BIRC7 BIR, 540 nM and < 1000 nM; on BIRC3 (Tracer K D, full-length BIRC3, full-length) it was under 250 nM; at BIRC3 (Tracer KD,app ± SEM, BIRC3, full-length, n = 4), 190 ± 30 nM. In addition, the Kd on BIRC1 BIR[2] is 1790 nM and > 1000 nM; at BIRC2 BIR3 (Tracer K D, app, BIRC2-BIR3 domain, single domain) it was 50 ± 10 nM; on BIRC2 BIR3 (Tracer KD,app ± SEM, BIRC2 BIR3, single domain, n = 4) it was under 1000 nM; on BIRC4 (Tracer K D, full-length BIRC4, full-length), under 250 nM; on BIRC4 (Tracer KD,app ± SEM, BIRC4, full-length, n = 4) it was 40 nM; on BIRC5, over 4000 nM. For the same compound, the Kd on BIRC3 BIR1 was 2310 nM and > 1000 nM; on BIRC4 BIR3 it was over 4000 nM; at BIRC3 BIR3, 380 nM and < 1000 nM; on BIRC1 BIR1, < 4000 nM and > 4000 nM and > 1000 nM; on BIRC3 BIR2 it was 1670 nM and > 1000 nM; at BIRC2, < 250 nM and 20 nM. Moreover, the Kd was under 250 nM at BIRC7 (Tracer K D, full-length BIRC7, full-length); 250 ± 20 nM at BIRC7 (Tracer KD,app ± SEM, BIRC7, full-length, n = 4); 2420 nM and > 1000 nM on BIRC2 BIR1; 2600 nM and > 1000 nM at BIRC2 BIR2; 1060 ± 350 nM on BIRC8.
